Reference: PubChem BioAssay (NCI)
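Assay format: 96-well plates, 48-hour exposure. Abbreviation: GI50, concentration required for 50% inhibition of growth. TGI is the concentration that stops growth completely.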

How the values were obtained:
Assay in all cases: NCI-60 cell line screen, 48 h
[1] = test system: A498 renal
[2] = test system: A549 NSCLC
[3] = test system: ACHN renal
[4] = test system: BT-549 breast
[5] = test system: CCRF-CEM leukemia
[6] = test system: COLO 205 colon
[7] = test system: DU-145 prostate
[8] = test system: EKVX NSCLC
[9] = test system: HCC-2998 colon
[10] = test system: HCT-116 colon
[11] = test system: HCT-15 colon
[12] = test system: HL-60(TB) leukemia
[13] = test system: HOP-62 NSCLC
[14] = test system: HOP-92 NSCLC
[15] = test system: HT29 colon
[16] = test system: IGROV1 ovarian
[17] = test system: KM12 colon
[18] = test system: M14 melanoma
[19] = test system: MALME-3M melanoma
[20] = test system: MCF7 breast
[21] = test system: MDA-MB-231 breast
[22] = test system: MOLT-4 leukemia
[23] = test system: NCI-H226 lung
[24] = test system: NCI-H460 lung
[25] = test system: NCI-H522 lung
[26] = test system: NCI/ADR-RES ovarian
[27] = test system: OVCAR-3 ovarian
[28] = test system: OVCAR-4 ovarian
[29] = test system: OVCAR-5 ovarian
[30] = test system: OVCAR-8 ovarian
[31] = test system: PC-3 prostate
[32] = test system: RPMI-8226 leukemia
[33] = test system: RXF 393 renal
[34] = test system: SF-268 CNS
[35] = test system: SF-539 CNS
[36] = test system: SK-MEL-2 melanoma
[37] = test system: SK-MEL-28 melanoma
[38] = test system: SK-OV-3 ovarian
[39] = test system: SN12C renal
[40] = test system: SNB-19 CNS
[41] = test system: SR leukemia
[42] = test system: SW-620 colon
[43] = test system: T-47D breast
[44] = test system: TK-10 renal
[45] = test system: UACC-257 melanoma
[46] = test system: UACC-62 melanoma
[47] = test system: UO-31 renal

Cc1cc(O)c(=O)cc2c1C[C@H]1CC(C)(C)/C=C/C[C@]3(C)Oc4cc(=O)c(O)cc(C)c4C[C@H]3C[C@H](O)[C@@]1(C)O2
GI50 [1]: 25.9 nM
TGI [1]: 80.9 nM
GI50 [2]: 6.97 nM
TGI [2]: > 16700 nM
GI50 [3]: 6.01 nM
TGI [3]: 50.4 nM
GI50 [4]: 12.5 nM
TGI [4]: > 16700 nM
GI50 [5]: 10.1 nM
TGI [5]: > 16700 nM
GI50 [6]: 5.71 nM
TGI [6]: 25.8 nM
GI50 [7]: 5.61 nM
TGI [7]: > 16700 nM
GI50 [8]: 11 nM
GI50 [9]: 20.3 nM
TGI [9]: > 16700 nM
GI50 [10]: < 1.67 nM
TGI [10]: > 16700 nM
GI50 [11]: 2.81 nM
TGI [11]: > 16700 nM
GI50 [12]: 20.2 nM
TGI [12]: 128 nM
GI50 [13]: 5.72 nM
TGI [13]: 40.1 nM
GI50 [14]: 5.54 nM
TGI [14]: 112 nM
GI50 [15]: 3.1 nM
TGI [15]: > 16700 nM
GI50 [16]: 16.3 nM
TGI [16]: > 16700 nM
GI50 [17]: 7.17 nM
TGI [17]: > 16700 nM
GI50 [18]: 11.7 nM
TGI [18]: 140 nM
GI50 [19]: 6.36 nM
TGI [19]: 32 nM
GI50 [20]: 3.81 nM
TGI [20]: > 16700 nM
GI50 [21]: 19.9 nM
TGI [21]: > 16700 nM
GI50 [22]: 7.93 nM
TGI [22]: > 16700 nM
GI50 [23]: 24 nM
GI50 [24]: < 1.67 nM
TGI [24]: 17.3 nM
GI50 [25]: 7.68 nM
TGI [25]: 51.7 nM
GI50 [26]: 8.45 nM
GI50 [27]: 12 nM
TGI [27]: > 16700 nM
GI50 [28]: 12 nM
TGI [28]: > 16700 nM
GI50 [29]: 13.6 nM
TGI [29]: > 16700 nM
GI50 [30]: 6.1 nM
TGI [30]: > 16700 nM
GI50 [31]: 5.38 nM
TGI [31]: > 16700 nM
GI50 [32]: 8.31 nM
TGI [32]: > 16700 nM
GI50 [33]: 10.5 nM
TGI [33]: 142 nM
GI50 [34]: 7.71 nM
TGI [34]: > 16700 nM
GI50 [35]: 10.4 nM
TGI [35]: 71.4 nM
GI50 [36]: 8.83 nM
TGI [36]: 496 nM
GI50 [37]: 15.6 nM
TGI [37]: > 16700 nM
GI50 [38]: 10.1 nM
TGI [38]: 95.2 nM
GI50 [39]: 5.11 nM
TGI [39]: > 4910 nM
GI50 [40]: < 1.67 nM
TGI [40]: > 16700 nM
GI50 [41]: 14.9 nM
TGI [41]: > 16700 nM
GI50 [42]: 2.91 nM
TGI [42]: > 16700 nM
GI50 [43]: 2.52 nM
TGI [43]: 16.3 nM
GI50 [44]: 8.98 nM
GI50 [45]: 13.5 nM
TGI [45]: 84.1 nM
GI50 [46]: 27.2 nM
TGI [46]: 85.4 nM
GI50 [47]: 7.73 nM
TGI [47]: 53.2 nM
